Test results reported in patent US10899732B2, “Substituted benzamides useful as sodium channel blockers” (GENENTECH, INC., priority 2015, dated 2021).
Where a name gives a salt, the structure may show the parent alone.

What was measured:
[1] = target: T1, NaV1.7 (Homo sapiens, UniProt Q15858); test: Patch voltage clamp electrophysiology assay (EP), NaV1.7 in HEK-293 cells; type: cell-based; settings: HEK-293, β1 coexpressed, held at -60 mV (inactivated state)
T1 construct: expression vector containing the full-length cDNA coding for the desired human sodium channel α-subunit; expressed in transfected cells; host or cells: HEK-293
T1 sequence (Q15858 1-1977 isoform Q15858-3): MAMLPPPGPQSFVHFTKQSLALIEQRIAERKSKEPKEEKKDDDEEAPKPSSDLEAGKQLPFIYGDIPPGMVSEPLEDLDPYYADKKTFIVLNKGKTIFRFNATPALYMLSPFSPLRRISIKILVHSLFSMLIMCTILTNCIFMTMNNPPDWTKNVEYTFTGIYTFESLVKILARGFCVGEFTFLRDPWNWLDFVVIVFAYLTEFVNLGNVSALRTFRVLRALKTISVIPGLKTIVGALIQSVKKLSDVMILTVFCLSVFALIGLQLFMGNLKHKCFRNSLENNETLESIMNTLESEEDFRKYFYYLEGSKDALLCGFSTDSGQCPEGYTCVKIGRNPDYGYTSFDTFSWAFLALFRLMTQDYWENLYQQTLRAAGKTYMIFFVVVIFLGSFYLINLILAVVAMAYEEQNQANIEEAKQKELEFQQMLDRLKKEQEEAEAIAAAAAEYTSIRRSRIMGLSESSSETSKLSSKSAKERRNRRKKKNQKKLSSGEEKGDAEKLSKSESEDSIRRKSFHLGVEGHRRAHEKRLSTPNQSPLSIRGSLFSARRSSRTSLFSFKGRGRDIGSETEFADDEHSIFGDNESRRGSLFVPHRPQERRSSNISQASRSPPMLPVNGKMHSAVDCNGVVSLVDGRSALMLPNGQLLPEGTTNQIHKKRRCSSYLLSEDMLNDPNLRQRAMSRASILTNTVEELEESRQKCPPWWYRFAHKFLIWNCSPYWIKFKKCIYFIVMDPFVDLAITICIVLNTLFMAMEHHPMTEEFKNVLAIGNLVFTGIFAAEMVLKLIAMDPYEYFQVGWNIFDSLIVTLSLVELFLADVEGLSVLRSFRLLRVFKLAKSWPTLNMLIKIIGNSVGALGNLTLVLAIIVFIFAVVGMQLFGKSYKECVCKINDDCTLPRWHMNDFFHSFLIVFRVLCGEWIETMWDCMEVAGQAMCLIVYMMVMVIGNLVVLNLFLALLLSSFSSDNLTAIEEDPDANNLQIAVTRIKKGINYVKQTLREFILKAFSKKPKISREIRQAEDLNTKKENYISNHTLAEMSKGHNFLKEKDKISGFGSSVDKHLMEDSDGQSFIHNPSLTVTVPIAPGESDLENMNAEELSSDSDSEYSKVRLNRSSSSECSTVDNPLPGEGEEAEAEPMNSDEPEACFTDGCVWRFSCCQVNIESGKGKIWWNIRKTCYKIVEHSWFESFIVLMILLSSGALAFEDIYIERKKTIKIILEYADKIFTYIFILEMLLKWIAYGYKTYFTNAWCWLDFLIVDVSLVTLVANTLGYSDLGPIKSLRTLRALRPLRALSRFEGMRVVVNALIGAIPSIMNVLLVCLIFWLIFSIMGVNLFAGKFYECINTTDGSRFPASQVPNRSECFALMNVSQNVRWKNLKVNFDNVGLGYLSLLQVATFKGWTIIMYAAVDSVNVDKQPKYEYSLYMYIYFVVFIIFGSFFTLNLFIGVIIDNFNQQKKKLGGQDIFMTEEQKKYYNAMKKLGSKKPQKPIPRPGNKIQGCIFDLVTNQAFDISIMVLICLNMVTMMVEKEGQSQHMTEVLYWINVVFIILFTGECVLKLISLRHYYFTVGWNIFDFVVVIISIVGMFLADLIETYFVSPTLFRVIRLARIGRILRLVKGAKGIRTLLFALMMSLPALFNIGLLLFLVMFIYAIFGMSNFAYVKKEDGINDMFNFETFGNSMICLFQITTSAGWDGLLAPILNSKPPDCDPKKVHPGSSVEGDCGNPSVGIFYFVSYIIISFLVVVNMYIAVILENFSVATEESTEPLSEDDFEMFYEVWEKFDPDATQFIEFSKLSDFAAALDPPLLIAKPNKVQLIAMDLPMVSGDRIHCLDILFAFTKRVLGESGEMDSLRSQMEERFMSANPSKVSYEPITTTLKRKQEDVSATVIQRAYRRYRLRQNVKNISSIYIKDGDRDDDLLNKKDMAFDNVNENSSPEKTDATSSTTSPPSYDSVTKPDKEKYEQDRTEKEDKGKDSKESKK
T1 sequence (Q07699 19-218 partner): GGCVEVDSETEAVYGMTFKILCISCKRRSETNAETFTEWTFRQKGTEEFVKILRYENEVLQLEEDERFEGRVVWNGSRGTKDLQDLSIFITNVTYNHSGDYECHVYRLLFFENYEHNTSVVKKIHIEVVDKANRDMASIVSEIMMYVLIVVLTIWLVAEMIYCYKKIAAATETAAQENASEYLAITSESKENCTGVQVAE
Source text: (§1) Electrophysiological Assay (EP) (In Vitro Assay)
(§2) Patch voltage clamp electrophysiology allows for the direct measurement and quantification of block of voltage-gated sodium channels (NaV's), and allows the determination of the time- and voltage-dependence of block which has been interpreted as differential binding to the resting, open, and inactivated states of the sodium channel (Hille, B., Journal of General Physiology (1977), 69: 497-515).
(§3) The following patch voltage clamp electrophysiology studies were performed on representative compounds of the invention using human embryonic kidney cells (HEK), permanently transfected with an expression vector containing the full-length cDNA coding for the desired human sodium channel α-subunit, grown in culture media containing 10% FBS, 1% PSG, and 0.5 mg/mL G418 at 37° C. with 5% CO2. […] NaV1.7 and NaV1.5 cDNAs (NM_002977 and AC137587; SCN5A, respectively) were stably expressed in HEK-293 cells. The β1 subunit was coexpressed in both the NaV1.7 and NaV1.5 cell lines.
(§4) Sodium currents were measured using the patch clamp technique in the whole-cell configuration using either a PatchXpress automated voltage clamp or manually using an Axopatch 200B (Axon Instruments) or Model 2400 (A-M systems) amplifier. The manual voltage clamp protocol was as follows: Borosilicate glass micropipettes were fire-polished to a tip diameter yielding a resistance of 2-4 Mohms in the working solutions. The pipette was filled with a solution comprised of: 5 mM NaCl, 10 mM CsCl, 120 mM CsF, 0.1 mM CaCl2, 2 mM MgCl2, 10 mM HEPES, 10 mM EGTA; and adjusted to pH 7.2 with CsOH. The external solution had the following composition: 140 mM NaCl, 5 mM KCl, 2 mM CaCl2, 1 mM MgCl2, 10 mM HEPES; and adjusted to pH 7.4 with NaOH. In some studies, the external sodium was reduced by equimolar replacement with choline. Osmolarity in the CsF internal and NaCl external solutions was adjusted to 300 mOsm/kg and 310 mOsm/kg with glucose, respectively. All recordings were performed at ambient temperature in a bath chamber with a volume of 150 μL. Control sodium currents were measured in 0.5% DMSO. Controls and representative compounds of the invention were applied to the recording chamber through a 4-pinch or 8-pinch valve bath perfusion system manufactured by ALA Scientific Instruments.
(§5) Currents were recorded at 40 kHz sampling frequency, filtered at […], and stored using a Digidata-1322A analogue/digital interface with the pClamp software (Axon Instruments). Series resistance compensation was applied (60-80%). […] All statistics in this study are given as mean±SD.
(§6) The membrane potential was maintained at a voltage where inactivation of the channel is complete (which was −60 mV for both NaV1.7 and NaV1.5). The voltage is then stepped back to a very negative (Vhold=[…]) voltage for 20 ms and then a test pulse is applied to quantify the compound block. The 20 ms brief repolarization was long enough for compound-free channels to completely recover from fast inactivation, but the compound-bound channels recovered more slowly such that negligible recovery could occur during this interval. The percent decrease in sodium current following wash-on of compound was taken as the percent block of sodium channels.

[2] = target: T2, hNav1.7 (Homo sapiens, UniProt Q15858); test: Tritiated sulfonamide competitive binding to membranes from cells expressing hNav1.7 and the β1 subunit (LBA); settings: competition with 100 pM [3H]compound, 18 h, room temperature; read-out: Nav1.7 (LBA)
T2 construct: expressed in transfected cells
T2 sequence (Q15858 1-1977 isoform Q15858-3): as the sequence (Q15858 1-1977 isoform Q15858-3) above
T2 sequence (Q07699 19-218 partner): as the sequence (Q07699 19-218 partner) above
Experimental: Tritiated Sulfonamide Binding to Membranes Isolated from Cells that Heterologously Express hNav1.7 and the β1 Subunit
Preparation of membranes containing recombinantly expressed sodium channels: Frozen recombinant cell pellets were thawed on ice and diluted to 4 times the cell pellet weight with ice cold 50 mM Tris HCl, pH 7.4 buffer. The cell suspensions were homogenized on ice using a motorized glass dounce homogenizer. Homogenates were further diluted 8.4 times with ice cold 50 mM Tris HCl, pH 7.4 buffer and then centrifuged at 200×g at 4° C. for 15 min. The supernatants were collected and centrifuged at 10000×g at 4° C. for 50 min. The pellets were then re-suspended in 100 mM NaCl, 20 mM Tris HCl, pH 7.4 buffer containing 1% v/v protease inhibitors (Calbiochem) and re-homogenized on ice. The homogenized membranes were then processed through a syringe equipped with a 26 gauge needle. Protein concentrations were determined by Bradford Assay and the membranes were stored at −80° C.
Saturation experiments. A competitive NaV1.7 inhibitor having a methyl group was tritiated. Three tritiums were incorporated in place of methyl hydrogens to generate [^3H]compound. Binding of this radioligand was preformed in 5 mL borosilicate glass test tubes at room temperature. Binding was initiated by adding membranes to increasing concentrations of [^3H]compound in 100 mM NaCl, 20 mM Tris HCl, pH 7.4 buffer containing 0.01% w/v bovine serum albumin (BSA) for 18 h. Non-specific binding was determined in the presence of 1 μM unlabelled compound. After 18 h, the reactants were filtered through GF/C glass fiber filters presoaked in 0.5% w/v polyethylene imine. Filters were washed with 15 mL ice cold 100 mM NaCl, 20 mM Tris HCl, pH 7.4 buffer containing 0.25% BSA to separate bound from free ligand. [^3H]compound bound to filters was quantified by liquid scintillation counting.
Binding reactions were performed in 96-well polypropylene plates at room temperature for 18 h. In 360 μL, membranes were incubated with 100 pM [^3H]compound and increasing concentrations of Test Compound. Non-specific binding was defined in the presence of 1 μM unlabelled compound. Reactions were transferred and filtered through 96-well glass fiber/C filter plates presoaked with 0.5% polyethylene imine. The filtered reactions were washed 5 times with 200 μL ice cold buffer containing 0.25% BSA. Bound radioactivity was determined by liquid scintillation counting.
Data Analysis: For saturation experiments, non-specific binding was subtracted from total binding to provide specific binding and these values were recalculated in terms of pmol ligand bound per mg protein. Saturation curves were constructed and dissociation constants were calculated using the single site ligand binding model: Beq=(Bmax*X)/(X+Kd), where Beq is the amount of ligand bound at equilibrium, Bmax is the maximum receptor density, Kd is the dissociation constant for the ligand, and X is the free ligand concentration. For competition studies percent inhibition was determined and IC50 values were calculated using a 4 parameter logistic model (% inhibition=(A+((B−A)/(1+((x/C)^D)))) using XLfit, where A and B are the maximal and minimum inhibition respectively, C is the IC50 concentration and D is the (Hill) slope.

[3] = target: T3, NaV1.5 (Homo sapiens, UniProt Q14524); test: Patch voltage clamp electrophysiology assay (EP), NaV1.5 in HEK-293 cells; type: cell-based; settings: HEK-293, β1 coexpressed, held at -60 mV (inactivated state)
T3 construct: expression vector containing the full-length cDNA coding for the desired human sodium channel α-subunit; expressed in transfected cells; host or cells: HEK-293
T3 sequence (Q14524 whole entry): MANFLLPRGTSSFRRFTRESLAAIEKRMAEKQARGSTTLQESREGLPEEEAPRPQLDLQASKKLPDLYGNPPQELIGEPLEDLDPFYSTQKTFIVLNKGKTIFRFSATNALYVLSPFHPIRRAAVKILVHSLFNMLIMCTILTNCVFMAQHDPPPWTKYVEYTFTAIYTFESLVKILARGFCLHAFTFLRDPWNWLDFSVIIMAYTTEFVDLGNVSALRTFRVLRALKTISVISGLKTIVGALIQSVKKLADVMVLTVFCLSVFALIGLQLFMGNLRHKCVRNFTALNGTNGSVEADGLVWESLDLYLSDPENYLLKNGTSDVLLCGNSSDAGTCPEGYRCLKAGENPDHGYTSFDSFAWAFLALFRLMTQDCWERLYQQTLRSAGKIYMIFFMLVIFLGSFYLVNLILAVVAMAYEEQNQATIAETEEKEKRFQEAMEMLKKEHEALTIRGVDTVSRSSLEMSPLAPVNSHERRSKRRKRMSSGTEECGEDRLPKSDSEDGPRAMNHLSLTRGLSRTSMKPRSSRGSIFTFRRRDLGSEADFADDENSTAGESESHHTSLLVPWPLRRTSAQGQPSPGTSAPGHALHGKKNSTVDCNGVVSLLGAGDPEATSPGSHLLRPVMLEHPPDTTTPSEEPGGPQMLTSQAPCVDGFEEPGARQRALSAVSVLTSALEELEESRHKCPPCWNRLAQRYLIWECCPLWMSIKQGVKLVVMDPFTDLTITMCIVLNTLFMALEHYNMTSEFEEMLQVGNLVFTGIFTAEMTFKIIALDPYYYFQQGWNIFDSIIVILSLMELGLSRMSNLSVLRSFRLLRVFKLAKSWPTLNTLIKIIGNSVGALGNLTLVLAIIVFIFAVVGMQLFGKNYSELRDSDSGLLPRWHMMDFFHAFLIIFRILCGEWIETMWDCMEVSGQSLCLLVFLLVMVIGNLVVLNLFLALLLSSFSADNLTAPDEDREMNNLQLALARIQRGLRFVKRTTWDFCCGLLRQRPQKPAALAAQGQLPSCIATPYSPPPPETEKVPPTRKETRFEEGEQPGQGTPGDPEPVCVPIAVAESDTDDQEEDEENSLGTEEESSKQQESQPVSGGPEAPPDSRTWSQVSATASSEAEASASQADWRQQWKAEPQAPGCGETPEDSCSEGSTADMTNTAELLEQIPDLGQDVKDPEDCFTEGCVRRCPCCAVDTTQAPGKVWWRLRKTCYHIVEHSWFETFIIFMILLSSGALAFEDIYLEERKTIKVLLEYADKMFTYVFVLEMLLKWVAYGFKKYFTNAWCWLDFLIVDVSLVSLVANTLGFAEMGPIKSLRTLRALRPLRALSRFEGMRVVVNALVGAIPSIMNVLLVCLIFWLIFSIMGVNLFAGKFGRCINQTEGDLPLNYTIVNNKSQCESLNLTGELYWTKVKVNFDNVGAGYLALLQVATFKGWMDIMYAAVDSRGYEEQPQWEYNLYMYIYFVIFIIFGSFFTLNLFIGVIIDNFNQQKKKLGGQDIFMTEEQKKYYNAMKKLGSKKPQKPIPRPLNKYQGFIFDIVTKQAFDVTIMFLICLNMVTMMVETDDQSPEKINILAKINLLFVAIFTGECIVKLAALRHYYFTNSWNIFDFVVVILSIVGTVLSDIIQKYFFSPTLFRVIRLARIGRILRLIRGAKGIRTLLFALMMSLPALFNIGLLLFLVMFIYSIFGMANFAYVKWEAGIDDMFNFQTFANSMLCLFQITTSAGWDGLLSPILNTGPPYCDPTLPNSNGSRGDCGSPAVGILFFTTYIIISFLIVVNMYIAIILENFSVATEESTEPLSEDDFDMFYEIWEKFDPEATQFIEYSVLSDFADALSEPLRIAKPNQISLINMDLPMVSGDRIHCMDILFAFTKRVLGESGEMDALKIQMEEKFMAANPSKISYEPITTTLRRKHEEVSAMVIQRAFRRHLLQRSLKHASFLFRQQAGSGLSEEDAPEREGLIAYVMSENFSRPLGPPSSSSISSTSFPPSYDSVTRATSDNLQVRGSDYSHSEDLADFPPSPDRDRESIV
Source text: as §1, §2, §3, §4, §5, §6

Compound	IC50 [1] [nM]	IC50 [2] [nM]	IC50 [3] [nM]	IC50 ([3]; human, pH 7.4) [nM]
Cc1nn(C2CCN(Cc3cc(C(F)(F)F)cc(Cl)c3F)CC2)c2cc(F)c(C(=O)NS(=O)(=O)N3CCC3)cc12 [Example 3, N-(azetidin-1-ylsulfonyl)-1-(1-(3-chloro-2-fluoro-5-(trifluoromethyl)benzyl)piperidin-4-yl)-6-fluoro-3-methyl-1H-indazole-5-carboxamide 2,2,2-trifluoroacetate]	250	33	7400	–
Cc1nn(C2CCN(Cc3cc(OC(F)(F)F)ccc3Br)CC2)c2cc(F)c(C(=O)NS(=O)(=O)C3CC3)cc12 [Example 7, 1-(1-(2-bromo-5-(trifluoromethoxy)benzyl)piperidin-4-yl)-N-(cyclopropylsulfonyl)-6-fluoro-3-methyl-1H-indazole-5-carboxamide 2,2,2-trifluoroacetate]	9	5	630	–
Cc1nn([C@@H]2CCN(Cc3cc(Cl)cc(OC(F)(F)F)c3)C2)c2cc(F)c(C(=O)NS(=O)(=O)C3CC3)cc12 [Example 11, (R)-1-(1-(3-chloro-5-(trifluoromethoxy)benzyl)pyrrolidin-3-yl)-N-(cyclopropylsulfonyl)-6-fluoro-3-methyl-1H-indazole-5-carboxamide 2,2,2-trifluoroacetate]	23	13	800	–
Cc1nn(C2CCN(Cc3cc(C(F)(F)F)cc(Cl)c3F)CC2)c2cc(F)c(C(=O)NS(=O)(=O)C3CC3)cc12 [Example 2, 1-(1-(3-chloro-2-fluoro-5-(trifluoromethyl)benzyl)piperidin-4-yl)-N-(cyclopropylsulfonyl)-6-fluoro-3-methyl-1H-indazole-5-carboxamide 2,2,2-trifluoroacetate]	86	13	4900	–
Cc1nn([C@@H]2CCN(Cc3ccc(Cl)cc3C(F)(F)F)C2)c2cc(F)c(C(=O)NS(=O)(=O)C3CC3)cc12 [Example 20, (R)-1-(1-(4-chloro-2-(trifluoromethyl)benzyl)pyrrolidin-3-yl)-N-(cyclopropylsulfonyl)-6-fluoro-3-methyl-1H-indazole-5-carboxamide, trifluoroacetic acid salt]	62	10	580	–
Cc1nn(C2CCC(C(C)C)CC2)c2cc(F)c(C(=O)NS(C)(=O)=O)cc12 (stereo not drawn) [Example 33, 6-fluoro-1-(4-isopropylcyclohexyl)-3-methyl-N-(methylsulfonyl)-1H-indazole-5-carboxamide]	79	20	20000	–

Continued by falling IC50 [1], values first:

IC50 [1] [nM]	IC50 [2] [nM]	Compound	IC50 [3] [nM]	IC50 ([3]; human, pH 7.4) [nM]
4000	1500	Cc1nn([C@@H]2CCN(C(=O)c3cc(Cl)cc(Cl)c3)C2)c2cc(F)c(C(=O)NS(=O)(=O)C3CC3)cc12 [Example 21, (R)-N-(cyclopropylsulfonyl)-1-(1-(3,5-dichlorobenzoyl)pyrrolidin-3-yl)-6-fluoro-3-methyl-1H-indazole-5-carboxamide]	–	≥ 30000
3600	490	Cc1nn(C2CCCCC2)c2cc(F)c(C(=O)NS(=O)(=O)N3CCC3)cc12 [Example 37, N-(azetidin-1-ylsulfonyl)-1-cyclohexyl-6-fluoro-3-methyl-1H-indazole-5-carboxamide]	–	≥ 30000
400	32	Cc1nn(C2CN(Cc3cc(Cl)cc(OC(F)(F)F)c3)C2)c2cc(F)c(C(=O)NS(C)(=O)=O)cc12 [Example 14, 1-(1-(3-chloro-5-(trifluoromethoxy)benzyl)azetidin-3-yl)-6-fluoro-3-methyl-N-(methylsulfonyl)-1H-indazole-5-carboxamide]	13000	–
100	17	Cc1nn([C@@H]2CCN([C@H](C)c3cc(Cl)cc(Cl)c3)C2)c2cc(F)c(C(=O)NS(C)(=O)=O)cc12 [Example 16, 1-((R)-1-((R)-1-(3,5-dichlorophenyl)ethyl)pyrrolidin-3-yl)-6-fluoro-3-methyl-N-(methylsulfonyl)-1H-indazole-5-carboxamide, trifluoroacetic acid salt]	13000	–
45	6	Cc1nn([C@@H]2CCN([C@H](C)c3cc(Cl)cc(Cl)c3)C2)c2cc(F)c(C(=O)NS(=O)(=O)C3CC3)cc12 [Example 17, N-(cyclopropylsulfonyl)-1-((R)-1-((R)-1-(3,5-dichlorophenyl)ethyl)pyrrolidin-3-yl)-6-fluoro-3-methyl-1H-indazole-5-carboxamide 2,2,2-trifluoroacetate]	880	–
